Laboratory results: patent US20100298141A1, “SUBSTITUTED PYRIDINE N-OXIDE HERBICIDES” (E. I. DU PONT DE NEMOURS AND COMPANY, priority 2007, published 2010)

How the values were obtained:
winter barley = assay: Test D preemergence test; type: in vivo, Hordeum vulgare
Source text: (§1) Seeds of plant species selected from annual bluegrass (Poa annua), blackgrass (Alopecurus myosuroides), downy bromegrass (Bromus tectorum), field violet (Viola arvensis), green foxtail (Setaria viridis), Italian ryegrass (Lolium multiflorum), littleseed canarygrass (Phalaris minor), spring wheat (Triticum aestivum), wild oat (Avena fatua), […]), winter barley (Hordeum vulgare), and winter wheat (Triticum aestivum) were planted and treated preemergence with test chemicals formulated in a non-phytotoxic solvent mixture which included a surfactant. […] A dash (-) response means no test result.

windgrass = assay: Test D preemergence test; type: in vivo, Apera spica-venti; conditions: scale 0 to 100
Source text: as §1

lambsquarters = assay: Test G preemergence test; type: in vivo, Chenopodium album; conditions: scale 0 to 100
field violet = assay: Test D preemergence test; type: in vivo, Viola arvensis; conditions: scale 0 to 100
Source text: as §1

winter wheat = assay: Test D preemergence test; type: in vivo, Triticum aestivum; conditions: scale 0 to 100
Source text: as §1

field sandbur = assay: Test G preemergence test; type: in vivo, Cenchrus incertus; conditions: scale 0 to 100
large crabgrass = assay: Test G preemergence test; type: in vivo, Digitaria sanguinalis; conditions: scale 0 to 100
corn = assay: Test G preemergence test; type: in vivo, Zea mays; conditions: scale 0 to 100
tall waterhemp = assay: Test G preemergence test; type: in vivo, Amaranthus tuberculatos; conditions: scale 0 to 100
soybean = assay: Test G preemergence test; type: in vivo, Glycine max; conditions: scale 0 to 100
green foxtail = assay: Test D preemergence test; type: in vivo, Setaria viridis; conditions: scale 0 to 100
Source text: as §1

millet foxtail = assay: Test G preemergence test; type: in vivo, Setaria italica; conditions: scale 0 to 100
giant foxtail = assay: Test G preemergence test; type: in vivo, Setaria faberii; conditions: scale 0 to 100
broadleaf signalgrass = assay: Test G preemergence test; type: in vivo, Brachiaria platyphylla; conditions: scale 0 to 100
barnyardgrass = assay: Test G preemergence test; type: in vivo, Echinochloa crus-galli; conditions: scale 0 to 100
goosegrass = assay: Test G preemergence test; type: in vivo, Eleusine indica; conditions: scale 0 to 100
eastern black nightshade = assay: Test G preemergence test; type: in vivo, Solanum ptycanthum; conditions: scale 0 to 100
millet = assay: Test G preemergence test; type: in vivo, Panicum miliaceum; conditions: scale 0 to 100
wild oat = assay: Test D preemergence test; type: in vivo, Avena fatua; conditions: scale 0 to 100
Source text: as §1

annual bluegrass = assay: Test D preemergence test; type: in vivo, Poa annua; conditions: scale 0 to 100
Source text: as §1

littleseed canarygrass = assay: Test D preemergence test; type: in vivo, Phalaris minor; conditions: scale 0 to 100
Source text: as §1

woolly cupgrass = assay: Test G preemergence test; type: in vivo, Eriochloa villosa; conditions: scale 0 to 100

## Cc1cc[n+]([O-])c(S(=O)(=O)C(Cl)c2c(C(F)(F)F)nn(C)c2Cl)c1 (racemic) [Compound 22]
Winter barley; Preemergence, 62 g ai/ha, scale 0 to 100
  Plant response rating, Barley: 0
Winter barley; Preemergence, 125 g ai/ha, scale 0 to 100
  Plant response rating, Barley: 0
Winter barley; Preemergence, 31 g ai/ha, scale 0 to 100
  Plant response rating, Barley: 0
Winter barley; preemergence, 250 g ai/ha, scale 0 (no effect) to 100 (complete control)
  Plant response rating, Barley: 0
windgrass; 31 g ai/ha
  Plant response rating, Windgrass: 100
windgrass; 62 g ai/ha
  Plant response rating, Windgrass: 100
windgrass; 125 g ai/ha
  Plant response rating, Windgrass: 100
windgrass; 250 g ai/ha
  Plant response rating, Windgrass: 100
lambsquarters; 31 g ai/ha
  Plant response rating, Lambsquarters: 0
lambsquarters; 62 g ai/ha
  Plant response rating, Lambsquarters: 0
lambsquarters; 125 g ai/ha
  Plant response rating, Lambsquarters: 0
lambsquarters; 250 g ai/ha
  Plant response rating, Lambsquarters: 80
Field violet; 31 g ai/ha
  Plant response rating, Field Violet: 0
Field violet; 62 g ai/ha
  Plant response rating, Field Violet: 30
Field violet; 125 g ai/ha
  Plant response rating, Field Violet: 30
Field violet; 250 g ai/ha
  Plant response rating, Field Violet: 45
Winter wheat; 31 g ai/ha
  Plant response rating, Wheat, Winter: 0
Winter wheat; 62 g ai/ha
  Plant response rating, Wheat, Winter: 0
Winter wheat; 125 g ai/ha
  Plant response rating, Wheat, Winter: 0
Winter wheat; 250 g ai/ha
  Plant response rating, Wheat, Winter: 10
Field sandbur; 31 g ai/ha
  Plant response rating, Sandbur: 15
Field sandbur; 62 g ai/ha
  Plant response rating, Sandbur: 60
Field sandbur; 125 g ai/ha
  Plant response rating, Sandbur: 85
Field sandbur; 250 g ai/ha
  Plant response rating, Sandbur: 100
Large crabgrass; 31 g ai/ha
  Plant response rating, Crabgrass, Large: 60
Large crabgrass; 62 g ai/ha
  Plant response rating, Crabgrass, Large: 60
Large crabgrass; 125 g ai/ha
  Plant response rating, Crabgrass, Large: 95
Large crabgrass; 250 g ai/ha
  Plant response rating, Crabgrass, Large: 100
corn; 31 g ai/ha
  Plant response rating, Corn: 0
corn; 62 g ai/ha
  Plant response rating, Corn: 0
corn; 125 g ai/ha
  Plant response rating, Corn: 0
corn; 250 g ai/ha
  Plant response rating, Corn: 0
Tall waterhemp; 31 g ai/ha
  Plant response rating, Waterhemp: 0
Tall waterhemp; 62 g ai/ha
  Plant response rating, Waterhemp: 20
Tall waterhemp; 125 g ai/ha
  Plant response rating, Waterhemp: 30
Tall waterhemp; 250 g ai/ha
  Plant response rating, Waterhemp: 100
soybean; 31 g ai/ha
  Plant response rating, Soybean: 0
soybean; 62 g ai/ha
  Plant response rating, Soybean: 0
soybean; 125 g ai/ha
  Plant response rating, Soybean: 0
soybean; 250 g ai/ha
  Plant response rating, Soybean: 0
Green foxtail; 31 g ai/ha
  Plant response rating, Foxtail, Green: 15
Green foxtail; 62 g ai/ha
  Plant response rating, Foxtail, Green: 40
Green foxtail; 125 g ai/ha
  Plant response rating, Foxtail, Green: 95
Green foxtail; 250 g ai/ha
  Plant response rating, Foxtail, Green: 100
Millet foxtail; 31 g ai/ha
  Plant response rating, Foxtail, Millet: 95
Millet foxtail; 62 g ai/ha
  Plant response rating, Foxtail, Millet: 95
Millet foxtail; 125 g ai/ha
  Plant response rating, Foxtail, Millet: 95
Millet foxtail; 250 g ai/ha
  Plant response rating, Foxtail, Millet: 95
Giant foxtail; 31 g ai/ha
  Plant response rating, Foxtail, Giant: 65
Giant foxtail; 62 g ai/ha
  Plant response rating, Foxtail, Giant: 70
Giant foxtail; 125 g ai/ha
  Plant response rating, Foxtail, Giant: 75
Giant foxtail; 250 g ai/ha
  Plant response rating, Foxtail, Giant: 75
Broadleaf signalgrass; 31 g ai/ha
  Plant response rating, Signalgrass: 0
Broadleaf signalgrass; 62 g ai/ha
  Plant response rating, Signalgrass: 40
Broadleaf signalgrass; 125 g ai/ha
  Plant response rating, Signalgrass: 65
Broadleaf signalgrass; 250 g ai/ha
  Plant response rating, Signalgrass: 75
barnyardgrass; 31 g ai/ha
  Plant response rating, Barnyardgrass: 0
barnyardgrass; 62 g ai/ha
  Plant response rating, Barnyardgrass: 95
barnyardgrass; 125 g ai/ha
  Plant response rating, Barnyardgrass: 100
barnyardgrass; 250 g ai/ha
  Plant response rating, Barnyardgrass: 100
goosegrass; 31 g ai/ha
  Plant response rating, Goosegrass: 100
goosegrass; 62 g ai/ha
  Plant response rating, Goosegrass: 100
goosegrass; 125 g ai/ha
  Plant response rating, Goosegrass: 100
goosegrass; 250 g ai/ha
  Plant response rating, Goosegrass: 100
Eastern black nightshade; 31 g ai/ha
  Plant response rating, Nightshade: 0
Eastern black nightshade; 62 g ai/ha
  Plant response rating, Nightshade: 0
Eastern black nightshade; 125 g ai/ha
  Plant response rating, Nightshade: 0
Eastern black nightshade; 250 g ai/ha
  Plant response rating, Nightshade: 45
millet; 31 g ai/ha
  Plant response rating, Millet: 0
millet; 62 g ai/ha
  Plant response rating, Millet: 35
millet; 125 g ai/ha
  Plant response rating, Millet: 60
millet; 250 g ai/ha
  Plant response rating, Millet: 100
Wild oat; 31 g ai/ha
  Plant response rating, Oat, Wild: 0
Wild oat; 62 g ai/ha
  Plant response rating, Oat, Wild: 0
Wild oat; 125 g ai/ha
  Plant response rating, Oat, Wild: 0
Wild oat; 250 g ai/ha
  Plant response rating, Oat, Wild: 15
Annual bluegrass; 31 g ai/ha
  Plant response rating, Bluegrass: 20
Annual bluegrass; 62 g ai/ha
  Plant response rating, Bluegrass: 65
Annual bluegrass; 125 g ai/ha
  Plant response rating, Bluegrass: 95
Annual bluegrass; 250 g ai/ha
  Plant response rating, Bluegrass: 100
Littleseed canarygrass; 31 g ai/ha
  Plant response rating, Canarygrass: 0
Littleseed canarygrass; 62 g ai/ha
  Plant response rating, Canarygrass: 15
Littleseed canarygrass; 125 g ai/ha
  Plant response rating, Canarygrass: 75
Littleseed canarygrass; 250 g ai/ha
  Plant response rating, Canarygrass: 100
Woolly cupgrass; 31 g ai/ha
  Plant response rating, Cupgrass, Woolly: 0
Woolly cupgrass; 62 g ai/ha
  Plant response rating, Cupgrass, Woolly: 60
Woolly cupgrass; 125 g ai/ha
  Plant response rating, Cupgrass, Woolly: 70
Woolly cupgrass; 250 g ai/ha
  Plant response rating, Cupgrass, Woolly: 80
